Measurements published in ChEMBL document CHEMBL1201862, “PubChem BioAssay data set” (2004).
Active and inactive are the calls of the source.

Columns and labels:
Caspase-3 [1] = target: T1, Caspase-3 (Homo sapiens, UniProt P42574); experiment: caspase-3 inhibitors as off-family protease, SAR follow-up, selectivity assay for SENP protease inhibitor project, biochemical, luminescence, set 2 (AID 588599); type: functional
T1 sequence (P42574 whole entry): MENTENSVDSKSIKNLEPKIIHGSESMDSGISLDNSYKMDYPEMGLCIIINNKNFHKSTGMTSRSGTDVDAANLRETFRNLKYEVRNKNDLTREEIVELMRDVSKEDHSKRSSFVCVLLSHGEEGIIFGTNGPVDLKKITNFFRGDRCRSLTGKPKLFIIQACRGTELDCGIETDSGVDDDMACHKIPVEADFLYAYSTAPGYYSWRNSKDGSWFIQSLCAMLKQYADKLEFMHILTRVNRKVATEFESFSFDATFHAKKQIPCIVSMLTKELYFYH

[2] = target: T2, Sentrin-specific protease 8 (Homo sapiens, UniProt Q96LD8); experiment: SENP8 protease inhibitors, SAR follow-up, biochemical, luminescence (AID 504501); type: functional
T2 sequence (Q96LD8 whole entry): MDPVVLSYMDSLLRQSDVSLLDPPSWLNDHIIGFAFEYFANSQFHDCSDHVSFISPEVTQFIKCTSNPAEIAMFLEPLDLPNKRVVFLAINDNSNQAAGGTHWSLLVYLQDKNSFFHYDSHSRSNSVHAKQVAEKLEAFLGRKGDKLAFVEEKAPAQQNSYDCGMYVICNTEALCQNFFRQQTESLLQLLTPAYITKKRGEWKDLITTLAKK

Caspase-3 [3] = target: T1, Caspase-3; experiment: SAR Analysis of small molecule inhibitors of Sentrin-specific proteases (SENPs) using a Caspase-3 Selectivity assay. [Related pubchem assays (depositor defined):AID2540, AID2599, AID434973, AID489001]; type: functional
[4] = target: T3, Sentrin-specific protease 7 (Homo sapiens, UniProt Q9BQF6); experiment: SENP7 protease inhibitors, SAR follow-up, biochemical, luminescence, set 2 (AID 588600); type: functional
T3 sequence (Q9BQF6 whole entry): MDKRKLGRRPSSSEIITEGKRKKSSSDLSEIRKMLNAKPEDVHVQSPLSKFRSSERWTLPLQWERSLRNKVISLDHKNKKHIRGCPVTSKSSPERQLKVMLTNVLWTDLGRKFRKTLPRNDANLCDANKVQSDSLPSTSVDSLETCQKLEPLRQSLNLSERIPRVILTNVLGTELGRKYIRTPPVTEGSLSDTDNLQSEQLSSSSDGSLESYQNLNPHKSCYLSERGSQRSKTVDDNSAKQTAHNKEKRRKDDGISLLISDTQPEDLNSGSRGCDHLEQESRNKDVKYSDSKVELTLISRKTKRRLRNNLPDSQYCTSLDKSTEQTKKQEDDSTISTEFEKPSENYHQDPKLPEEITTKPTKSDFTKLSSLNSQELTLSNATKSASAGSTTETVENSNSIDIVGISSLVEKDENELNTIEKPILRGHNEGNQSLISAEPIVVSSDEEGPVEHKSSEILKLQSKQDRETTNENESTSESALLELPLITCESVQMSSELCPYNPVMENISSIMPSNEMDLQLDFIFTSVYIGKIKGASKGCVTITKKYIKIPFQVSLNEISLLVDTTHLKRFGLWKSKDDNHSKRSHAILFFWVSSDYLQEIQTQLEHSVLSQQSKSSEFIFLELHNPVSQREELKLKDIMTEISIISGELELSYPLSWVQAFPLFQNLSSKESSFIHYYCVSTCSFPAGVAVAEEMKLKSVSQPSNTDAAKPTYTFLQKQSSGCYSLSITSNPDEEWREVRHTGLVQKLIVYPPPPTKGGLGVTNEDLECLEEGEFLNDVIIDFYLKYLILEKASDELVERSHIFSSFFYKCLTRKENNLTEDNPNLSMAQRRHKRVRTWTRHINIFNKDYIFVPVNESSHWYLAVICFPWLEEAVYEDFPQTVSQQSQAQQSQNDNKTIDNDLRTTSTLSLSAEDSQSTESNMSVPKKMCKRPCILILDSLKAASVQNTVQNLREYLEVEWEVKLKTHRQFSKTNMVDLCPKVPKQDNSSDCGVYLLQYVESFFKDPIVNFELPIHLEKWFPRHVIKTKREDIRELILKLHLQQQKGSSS

[5] = target: T2, Sentrin-specific protease 8; experiment: SENP8 protease inhibitors, SAR follow-up, biochemical, luminescence, set 2 (AID 588601); type: functional
[6] = target: T4, Sentrin-specific protease 6 (Homo sapiens, UniProt Q9GZR1); experiment: SENP6 protease inhibitors, SAR follow-up, biochemical, luminescence, set 2 (AID 588598); type: functional
T4 sequence (Q9GZR1 whole entry): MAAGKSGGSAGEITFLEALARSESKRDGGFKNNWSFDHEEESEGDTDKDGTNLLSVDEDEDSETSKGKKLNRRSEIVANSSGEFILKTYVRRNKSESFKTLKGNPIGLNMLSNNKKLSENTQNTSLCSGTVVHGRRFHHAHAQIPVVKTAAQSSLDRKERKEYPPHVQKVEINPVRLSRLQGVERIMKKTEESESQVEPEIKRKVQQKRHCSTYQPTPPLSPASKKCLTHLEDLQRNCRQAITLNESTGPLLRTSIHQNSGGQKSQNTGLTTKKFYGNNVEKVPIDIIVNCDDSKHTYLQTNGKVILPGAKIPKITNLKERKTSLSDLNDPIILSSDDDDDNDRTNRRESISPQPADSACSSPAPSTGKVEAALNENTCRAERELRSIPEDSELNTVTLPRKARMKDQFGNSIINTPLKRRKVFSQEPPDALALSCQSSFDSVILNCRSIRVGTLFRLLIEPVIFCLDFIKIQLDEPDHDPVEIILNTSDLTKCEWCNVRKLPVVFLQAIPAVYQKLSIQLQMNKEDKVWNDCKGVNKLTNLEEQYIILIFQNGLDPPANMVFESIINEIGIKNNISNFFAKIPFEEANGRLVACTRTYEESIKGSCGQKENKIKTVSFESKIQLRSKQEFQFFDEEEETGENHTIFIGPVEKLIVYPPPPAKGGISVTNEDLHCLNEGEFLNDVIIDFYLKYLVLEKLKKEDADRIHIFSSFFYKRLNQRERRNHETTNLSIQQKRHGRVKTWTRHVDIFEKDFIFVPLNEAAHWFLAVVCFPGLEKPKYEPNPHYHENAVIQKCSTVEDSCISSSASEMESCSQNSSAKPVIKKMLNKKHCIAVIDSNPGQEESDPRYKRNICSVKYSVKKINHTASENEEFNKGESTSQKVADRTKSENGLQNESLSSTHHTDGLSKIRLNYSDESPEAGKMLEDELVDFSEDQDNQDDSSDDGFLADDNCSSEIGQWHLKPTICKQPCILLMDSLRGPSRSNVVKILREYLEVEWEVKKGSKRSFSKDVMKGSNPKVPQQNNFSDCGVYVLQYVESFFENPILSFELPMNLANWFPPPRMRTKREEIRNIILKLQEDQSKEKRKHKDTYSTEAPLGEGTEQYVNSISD

[7] = target: T3, Sentrin-specific protease 7; experiment: SENP7 protease inhibitors, SAR follow-up, biochemical, luminescence (AID 504497); type: functional
[8] = target: T4, Sentrin-specific protease 6; experiment: SAR Analysis of small molecule inhibitors of Sentrin-specific protease 6 (SENP6) using a Luminescent assay. [Related pubchem assays (depositor defined):AID2582, AID2599]; type: functional
[9] = C. albicans growth with fluconazole, confirmation, fluorescence, retest (AID 2467); type: functional, cell-based
[10] = target: T5, Hepatocyte nuclear factor 4-alpha (Homo sapiens, UniProt P41235); type: functional, cell-based;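 note: biochemical luminescence-based dose-response counterscreen measuring inhibition of HNF4 dimerization, run alongside a screen for blockers of ABHD5–perilipin-5 interaction; split luciferase complementation of HNF4 fusion proteins in cell lysate measuring dimerization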
T5 sequence (P41235 whole entry): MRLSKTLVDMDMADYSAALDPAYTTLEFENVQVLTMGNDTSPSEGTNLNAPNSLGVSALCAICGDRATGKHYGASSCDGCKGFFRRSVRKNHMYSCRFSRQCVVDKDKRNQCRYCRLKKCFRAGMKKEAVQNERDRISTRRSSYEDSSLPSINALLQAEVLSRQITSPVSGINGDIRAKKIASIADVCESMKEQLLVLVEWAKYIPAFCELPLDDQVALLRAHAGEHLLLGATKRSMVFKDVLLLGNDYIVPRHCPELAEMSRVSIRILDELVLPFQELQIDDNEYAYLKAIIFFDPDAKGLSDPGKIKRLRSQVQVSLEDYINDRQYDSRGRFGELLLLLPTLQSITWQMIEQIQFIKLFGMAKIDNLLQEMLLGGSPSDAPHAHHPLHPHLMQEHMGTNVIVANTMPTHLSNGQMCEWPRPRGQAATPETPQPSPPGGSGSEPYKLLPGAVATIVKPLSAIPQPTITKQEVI

[11] = target: Protein disulfide-isomerase (Homo sapiens, UniProt P07237); experiment: PDI inhibitors, insulin aggregation turbidity, dose response, biochemical, absorbance, cherry-picked samples (AID 602350); type: functional
[12] = NIH-3T3 fibroblast cytotoxicity, dose response, cytotoxicity control, cell-based, fluorescence, Alamar Blue, secondary assay (AID 2327); type: functional;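 note: NIH-3T3 mouse fibroblasts cultured with fluconazole at 8 µg/mL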
[13] = target: Latent membrane protein 1 (Human herpesvirus 4 (strain B95-8), UniProt P03230); experiment: TES1-eGFP NF-kB reporter inhibition versus Tet-On dsRED, dose response, selectivity assay for LMP1 NF-kB inhibitor project, imaging, HEK293T, dual-color eGFP/dsRED, cherry-picks (AID 588398); type: functional, cell-based
Ephrin type-A receptor 2 = Ephrin type-A receptor 2 (Homo sapiens, UniProt P29317); type: functional;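 note: EPHA2 tested as one member of a kinome-wide kinase panel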
[14] = target: Glycogen synthase kinase-3 alpha (Homo sapiens, UniProt P49840); type: functional;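 note: GSK3A result taken from a broad kinome-wide kinase panel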
[15] = mammalian cell cytotoxicity, dose response, cytotoxicity control, plate reader, cherry-pick samples (AID 504397); type: functional, cell-based
CAAX prenyl protease 2 [16] = target: T6, CAAX prenyl protease 2 (Saccharomyces cerevisiae S288c, UniProt Q03530); experiment: yeast Rce1 CaaX protease inhibitors, dose response, biochemical, plate reader, dry powder retest (AID 588851)
T6 sequence (Q03530 whole entry): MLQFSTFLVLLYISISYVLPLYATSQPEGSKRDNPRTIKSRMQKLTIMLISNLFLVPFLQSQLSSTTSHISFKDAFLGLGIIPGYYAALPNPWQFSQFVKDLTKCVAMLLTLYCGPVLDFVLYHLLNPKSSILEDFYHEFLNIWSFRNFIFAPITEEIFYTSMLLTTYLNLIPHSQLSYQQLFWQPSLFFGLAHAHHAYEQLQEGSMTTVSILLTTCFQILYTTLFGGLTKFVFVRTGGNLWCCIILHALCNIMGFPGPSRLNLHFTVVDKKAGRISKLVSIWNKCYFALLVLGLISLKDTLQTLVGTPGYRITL

CAAX prenyl protease 2 [17] = target: T6, CAAX prenyl protease 2; type: biochemical
H9c2 = experiment: cells; type: functional, cell-based; details: Rattus norvegicus, H9c2, Myocardium;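 note: confirmatory concentration-response retest of ultra-high-throughput screening hits for modulation of myocardial damage; cell death induced by hydrogen peroxide oxidative stress; compound pretreatment for 60 min then peroxide exposure for 2 h; potency is for protecting the cells against peroxide damage rather than for killing them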
[18] = target: T7, High affinity choline transporter 1 (Homo sapiens, UniProt Q9GZV3); experiment: CHT activators, dose response, cell-based, 10-point CRC, membrane potential dye (AID 602376); type: functional
T7 sequence (Q9GZV3 whole entry): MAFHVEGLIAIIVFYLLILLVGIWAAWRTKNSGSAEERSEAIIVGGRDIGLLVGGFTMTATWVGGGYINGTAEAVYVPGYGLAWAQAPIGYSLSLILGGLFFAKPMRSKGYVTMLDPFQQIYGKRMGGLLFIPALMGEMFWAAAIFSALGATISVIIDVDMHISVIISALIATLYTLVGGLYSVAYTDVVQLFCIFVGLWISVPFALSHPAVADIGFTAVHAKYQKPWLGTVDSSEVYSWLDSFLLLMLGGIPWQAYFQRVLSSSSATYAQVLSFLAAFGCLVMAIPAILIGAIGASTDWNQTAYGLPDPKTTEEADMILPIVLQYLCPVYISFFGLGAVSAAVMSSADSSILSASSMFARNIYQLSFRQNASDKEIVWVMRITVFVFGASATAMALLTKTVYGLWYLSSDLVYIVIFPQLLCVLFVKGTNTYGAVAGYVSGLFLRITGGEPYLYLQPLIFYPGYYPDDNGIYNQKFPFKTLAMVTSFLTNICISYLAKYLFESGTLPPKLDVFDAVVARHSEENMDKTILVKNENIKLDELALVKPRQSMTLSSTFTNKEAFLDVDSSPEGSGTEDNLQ

INS1 [19] = experiment: INS-1E beta-cell viability without cytokines, dose response, cytotoxicity control for beta-cell cytokine protection project, CellTiter-Glo luminescence, dry powder (AID 488864); type: functional, cell-based; details: Rattus norvegicus
INS1 [20] = experiment: inhibitors of cytokine-induced nitrite release, dose response, cell-based, Griess absorbance, INS-1E, dry powder, set 2 (AID 488868); type: functional; details: Rattus norvegicus
[21] = inhibitors of cytokine-induced nitrite release, dose response, cell-based, Griess absorbance, INS-1E, dry powder, set 3 (AID 488870); type: functional; details: Rattus norvegicus

Chain of Glycogen synthase kinase-3 alpha (P49840 whole entry): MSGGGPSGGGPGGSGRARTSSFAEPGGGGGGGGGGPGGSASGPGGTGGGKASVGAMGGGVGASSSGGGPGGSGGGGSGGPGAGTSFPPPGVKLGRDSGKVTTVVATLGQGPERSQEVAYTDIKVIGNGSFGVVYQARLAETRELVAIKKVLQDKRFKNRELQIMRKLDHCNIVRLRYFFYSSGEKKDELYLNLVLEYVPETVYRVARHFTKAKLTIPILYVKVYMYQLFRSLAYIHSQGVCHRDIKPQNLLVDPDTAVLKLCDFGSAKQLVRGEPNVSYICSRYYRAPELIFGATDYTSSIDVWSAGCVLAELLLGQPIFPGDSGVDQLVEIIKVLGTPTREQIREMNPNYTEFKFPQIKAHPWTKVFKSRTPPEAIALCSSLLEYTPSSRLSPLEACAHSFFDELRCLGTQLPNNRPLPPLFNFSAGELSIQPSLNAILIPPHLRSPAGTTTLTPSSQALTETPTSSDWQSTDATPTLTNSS
Chain of Ephrin type-A receptor 2 (P29317 whole entry): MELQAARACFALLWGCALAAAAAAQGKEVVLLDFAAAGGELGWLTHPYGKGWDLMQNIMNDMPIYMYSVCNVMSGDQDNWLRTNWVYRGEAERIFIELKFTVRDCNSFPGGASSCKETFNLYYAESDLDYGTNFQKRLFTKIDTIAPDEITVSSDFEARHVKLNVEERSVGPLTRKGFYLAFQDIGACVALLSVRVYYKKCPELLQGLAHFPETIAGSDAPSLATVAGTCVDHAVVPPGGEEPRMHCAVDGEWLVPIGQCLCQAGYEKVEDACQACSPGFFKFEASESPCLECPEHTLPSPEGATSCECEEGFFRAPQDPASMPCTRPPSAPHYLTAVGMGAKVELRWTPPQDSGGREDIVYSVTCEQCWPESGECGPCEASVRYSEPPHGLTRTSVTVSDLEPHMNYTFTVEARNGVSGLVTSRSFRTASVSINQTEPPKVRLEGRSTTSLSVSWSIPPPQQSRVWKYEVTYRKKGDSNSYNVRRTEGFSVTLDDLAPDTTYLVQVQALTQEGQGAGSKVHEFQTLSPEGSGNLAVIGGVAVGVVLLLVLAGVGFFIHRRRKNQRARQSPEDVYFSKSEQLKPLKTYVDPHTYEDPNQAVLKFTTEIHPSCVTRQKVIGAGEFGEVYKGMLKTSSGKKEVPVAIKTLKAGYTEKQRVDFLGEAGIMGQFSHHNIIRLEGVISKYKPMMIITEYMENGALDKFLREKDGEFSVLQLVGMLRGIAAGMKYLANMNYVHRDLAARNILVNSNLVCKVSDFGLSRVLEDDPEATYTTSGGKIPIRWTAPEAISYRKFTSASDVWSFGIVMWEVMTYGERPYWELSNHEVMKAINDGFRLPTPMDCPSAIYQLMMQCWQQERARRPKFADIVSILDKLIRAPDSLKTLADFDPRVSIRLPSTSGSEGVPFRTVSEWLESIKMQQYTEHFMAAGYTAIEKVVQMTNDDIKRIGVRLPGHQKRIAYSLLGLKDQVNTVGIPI
Chain of Latent membrane protein 1 (P03230 whole entry): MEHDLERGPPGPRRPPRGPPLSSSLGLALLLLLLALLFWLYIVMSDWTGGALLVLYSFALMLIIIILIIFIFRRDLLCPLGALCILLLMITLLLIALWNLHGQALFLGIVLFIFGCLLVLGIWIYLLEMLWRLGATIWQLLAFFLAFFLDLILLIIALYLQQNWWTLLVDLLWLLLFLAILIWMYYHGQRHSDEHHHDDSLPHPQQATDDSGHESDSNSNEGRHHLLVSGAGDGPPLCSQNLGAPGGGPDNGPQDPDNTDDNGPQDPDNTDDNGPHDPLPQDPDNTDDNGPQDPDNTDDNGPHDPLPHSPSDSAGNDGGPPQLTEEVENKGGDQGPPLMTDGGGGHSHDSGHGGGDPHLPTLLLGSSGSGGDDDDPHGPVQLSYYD
Chain of Protein disulfide-isomerase (P07237 whole entry): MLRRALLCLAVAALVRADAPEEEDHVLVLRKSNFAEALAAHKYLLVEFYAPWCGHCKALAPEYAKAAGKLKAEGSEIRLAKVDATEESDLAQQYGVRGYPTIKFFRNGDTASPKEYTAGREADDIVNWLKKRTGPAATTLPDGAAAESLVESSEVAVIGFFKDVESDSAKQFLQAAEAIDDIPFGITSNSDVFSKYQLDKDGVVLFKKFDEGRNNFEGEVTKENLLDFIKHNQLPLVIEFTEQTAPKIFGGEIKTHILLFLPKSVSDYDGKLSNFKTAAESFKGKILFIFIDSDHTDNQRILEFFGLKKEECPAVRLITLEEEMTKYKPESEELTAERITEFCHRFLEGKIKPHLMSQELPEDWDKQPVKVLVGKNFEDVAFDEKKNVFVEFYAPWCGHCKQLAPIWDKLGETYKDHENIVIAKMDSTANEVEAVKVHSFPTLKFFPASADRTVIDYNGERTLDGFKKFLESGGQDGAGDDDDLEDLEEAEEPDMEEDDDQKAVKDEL

SMILES: COc1ccc(/C=C/c2noc(-c3ccccc3O)n2)cc1
- IC50 (Caspase-3 [1]): 1.17 µM (active)
- IC50 [2]: 1.3 µM (active)
- IC50 (Caspase-3 [3]): 1.4 µM (active)
- IC50 [4]: 1.35 µM (active)
- IC50 [5]: 1.19 µM (active)
- IC50 [6]: 1.26 µM (active)
- IC50 [7]: 1.1 µM (active)
- IC50 [8]: 1.4 µM (active)

SMILES: O=C(/C=C/c1ccc(NC(=O)c2ccccc2-c2ccccc2C(=O)O)cc1)c1ccccc1
- EC50 [9]: > 38 µM (not active)
- IC50 [10]: 8.66 µM (active)
- AC50 [11]: 11.4 µM (active)
- EC50 [12]: > 150 µM (inactive)

SMILES: O=C(Nc1ccccn1)NC1CCCCC1
- AC50 [13]: 66.5 µM (active)

SMILES: Cc1ccc(NC(=O)c2cnn3c(-c4ccccc4)ccnc23)cc1C
- Ki (Ephrin type-A receptor 2): 2 µM (active)
- Ki [14]: 7.94 µM (active)

SMILES: Cc1ccc(SCc2c(C(=O)N/N=C/c3ccccc3)nnn2-c2nonc2N)cc1
- AC50 [15]: 73 µM (active)
- AC50 (CAAX prenyl protease 2 [16]): 3.7 µM (active)
- AC50 (CAAX prenyl protease 2 [17]): 0.141 µM (active)

SMILES: COC(=O)c1ccc(C(NC(=O)OCc2ccccc2)/C(C)=C/[C@@H](C)C(=O)NCc2ccc(OC)c(OC)c2)cc1 (stereo partly drawn)
- IC50 (H9c2): 10.6 µM (active)
- EC50 [18]: 12.3 µM (active)

SMILES: C[C@@H]1CN([C@@H](C)CO)C(=O)c2cccc(NC(=O)Nc3cccc4ccccc34)c2O[C@H]1CN(C)S(=O)(=O)c1ccc(OC(F)(F)F)cc1
- AC50 (INS1 [19]): 18.5 µM (active)
- AC50 (INS1 [20]): 16.5 µM (active)
- AC50 [21]: 20.3 µM (active)
